Holding throughout (format): biochemical
In one experiment the target is T1, CKIα (Homo sapiens, UniProt P48729).
T1 sequence (P48729 2-337): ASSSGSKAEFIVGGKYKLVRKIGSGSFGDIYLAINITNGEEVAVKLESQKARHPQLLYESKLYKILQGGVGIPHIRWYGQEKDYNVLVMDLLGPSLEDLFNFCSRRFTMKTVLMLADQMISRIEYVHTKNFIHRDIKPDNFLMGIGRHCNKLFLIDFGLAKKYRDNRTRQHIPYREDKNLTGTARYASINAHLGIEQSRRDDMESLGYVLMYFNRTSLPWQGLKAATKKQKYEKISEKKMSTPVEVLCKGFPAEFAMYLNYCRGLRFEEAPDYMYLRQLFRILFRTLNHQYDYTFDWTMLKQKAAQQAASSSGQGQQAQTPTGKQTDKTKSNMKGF
Briefly: in vitro kinase assay.

In experiment [1] the target is casein kinase 1 delta (CKIδ) (Homo sapiens, UniProt P48730). In words: in vitro kinase assay IC50.
Sequence of casein kinase 1 delta (CKIδ) (P48730 whole entry): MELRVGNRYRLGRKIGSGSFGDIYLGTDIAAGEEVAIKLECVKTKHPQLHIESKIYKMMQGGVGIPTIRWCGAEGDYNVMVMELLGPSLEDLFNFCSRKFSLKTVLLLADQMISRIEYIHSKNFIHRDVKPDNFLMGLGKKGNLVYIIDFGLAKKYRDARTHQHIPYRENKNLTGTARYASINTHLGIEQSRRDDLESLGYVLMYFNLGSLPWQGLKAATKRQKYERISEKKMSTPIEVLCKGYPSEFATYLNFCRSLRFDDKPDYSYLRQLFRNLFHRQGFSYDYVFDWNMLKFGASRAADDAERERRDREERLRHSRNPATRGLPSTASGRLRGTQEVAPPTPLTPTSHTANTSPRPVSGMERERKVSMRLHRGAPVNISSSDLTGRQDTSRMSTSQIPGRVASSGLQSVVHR
The next experiment deals with CKIε (Homo sapiens, UniProt P49674). In words: in vitro kinase assay.
Sequence of CKIε (P49674 whole entry): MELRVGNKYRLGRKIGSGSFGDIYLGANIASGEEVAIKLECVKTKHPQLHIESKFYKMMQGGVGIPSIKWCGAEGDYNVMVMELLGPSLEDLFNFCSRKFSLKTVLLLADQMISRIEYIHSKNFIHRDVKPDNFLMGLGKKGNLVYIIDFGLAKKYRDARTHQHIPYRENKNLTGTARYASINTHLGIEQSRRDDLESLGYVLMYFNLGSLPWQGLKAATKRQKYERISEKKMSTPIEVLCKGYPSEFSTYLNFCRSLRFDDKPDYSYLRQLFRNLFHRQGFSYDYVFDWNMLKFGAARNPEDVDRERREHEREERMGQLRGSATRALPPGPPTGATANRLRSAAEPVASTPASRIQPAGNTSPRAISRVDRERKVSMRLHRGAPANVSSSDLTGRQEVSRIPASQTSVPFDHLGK

Usually IC50 stands for the concentration that inhibits the measured activity by half. A low value points to greater potency.

Consider `Cc1cc2sc(NC(=O)Cc3ccccc3)nc2cc1Cl` [LH846], for which the values for the IC50 (at CKIα; in experiment [1]; against CKIε) were 2500 nM, 290 nM and 1300 nM, respectively.
